According to PubChem BioAssay AID248 (DTP/NCI, 2004):
Inconclusive results and toxic doses are left out. No stated cut-off is given here; in the data, active means T/C of 150% or more; inactive means T/C below 125%.

Test system: L1210 leukemia ip in BDF1 mice, survival T/C
Assay: NCI In Vivo Anticancer Drug Screen. Data for tumor model L1210 Leukemia (intraperitoneal) in B6D2F1 (BDF1) mice
Details: endpoint: mean survival time, higher = longer survival
Summary of the method: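 Mice bearing the transplanted tumor received compound or vehicle. Survival of the treated group was divided by that of the vehicle-treated control group to give the ratio.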

[1] = dose: 100.0 mg/kg/injection, schedule: Q01DX009 (ip), vehicle: other
[2] = dose: 200.0 mg/kg/injection, schedule: Q01DX009 (ip), vehicle: other
[3] = dose: 400.0 mg/kg/injection, schedule: Q01DX009 (ip), vehicle: other
[4] = dose: 100.0 mg/kg/injection, schedule: Q01DX001 (ip), vehicle: saline
[5] = dose: 200.0 mg/kg/injection, schedule: Q01DX001 (ip), vehicle: saline
[6] = dose: 400.0 mg/kg/injection, schedule: Q01DX001 (ip), vehicle: saline
[7] = dose: 100.0 mg/kg/injection, schedule: Q04DX003 (ip), vehicle: Klucel (hydroxypropylcellulose) (HPC)
[8] = dose: 200.0 mg/kg/injection, schedule: Q01DX009 (ip), vehicle: saline
[9] = dose: 200.0 mg/kg/injection, schedule: Q04DX003 (ip), vehicle: Klucel (hydroxypropylcellulose) (HPC)
[10] = dose: 400.0 mg/kg/injection, schedule: Q04DX003 (ip), vehicle: Klucel (hydroxypropylcellulose) (HPC)
[11] = dose: 100.0 mg/kg/injection, schedule: Q04DX003 (ip), vehicle: saline with Tween-80
[12] = dose: 200.0 mg/kg/injection, schedule: Q04DX003 (ip), vehicle: saline with Tween-80
[13] = dose: 100.0 mg/kg/injection, schedule: Q01DX009 (ip), vehicle: saline
[14] = dose: 100.0 mg/kg/injection, schedule: Q04DX003 (ip), vehicle: saline

Measured: T/C

CCOC(=O)C(C(C)=O)C(=O)OCC
inactive: dose: 25.0 mg/kg/injection, schedule: Q01DX009 (ip), vehicle: other 101 % of control | dose: 50.0 mg/kg/injection, schedule: Q01DX009 (ip), vehicle: other 103 % of control | [1] 109 % of control | [2] 100 % of control | [3] 95 % of control

O=S(=O)(c1ccccc1)C1CCCC1Cl (centres undefined)
inactive: [4] 104 % of control | [5] 96 % of control | [6] 100 % of control

O=C(Nc1ccc([N+](=O)[O-])cc1)Nc1ccc([N+](=O)[O-])cc1 (tested in a mixture with another compound)
inactive: [7] 89 % of control | [8] 98 % of control | [9] 100 % of control | dose: 400.0 mg/kg/injection, schedule: Q01DX009 (ip), vehicle: saline 88 % of control | [10] 89 % of control

CC(C(=O)O)N(Cc1ccccc1)S(C)(=O)=O (centres undefined)
inactive: [1] 97 % of control | dose: 100.0 mg/kg/injection, schedule: Q04DX003 (ip), vehicle: other 94 % of control | [2] 106 % of control | dose: 200.0 mg/kg/injection, schedule: Q04DX003 (ip), vehicle: other 102 % of control | [3] 108 % of control | dose: 400.0 mg/kg/injection, schedule: Q04DX003 (ip), vehicle: other 101 % of control

Clc1ccccc1C(N1CCCCC1)N1CCCCC1
inactive: dose: 100.0 mg/kg/injection, schedule: Q04DX002 (ip), vehicle: saline 88 % of control | dose: 200.0 mg/kg/injection, schedule: Q04DX002 (ip), vehicle: saline 92 % of control | dose: 400.0 mg/kg/injection, schedule: Q04DX002 (ip), vehicle: saline 95 % of control

Nc1cc(N)c(N)cc1N
inactive: dose: 9.38 mg/kg/injection, schedule: Q01DX001 (ip), vehicle: saline 95 % of control | dose: 18.75 mg/kg/injection, schedule: Q01DX001 (ip), vehicle: saline 101 % of control | dose: 37.5 mg/kg/injection, schedule: Q01DX001 (ip), vehicle: saline 111 % of control

COC(=O)C(=C(c1ccccc1)c1ccccc1)c1ccccc1
inactive: [11] 90 % of control | [12] 90 % of control

C=CCCCCCCCC/C=C1\CCOC1=O
inactive: dose: 75.0 mg/kg/injection, schedule: Q01DX009 (ip), vehicle: saline with Tween-80 105 % of control | [11] 104 % of control | dose: 150.0 mg/kg/injection, schedule: Q01DX009 (ip), vehicle: saline with Tween-80 93 % of control | [12] 89 % of control | dose: 300.0 mg/kg/injection, schedule: Q01DX009 (ip), vehicle: saline with Tween-80 99 % of control | dose: 400.0 mg/kg/injection, schedule: Q04DX003 (ip), vehicle: saline with Tween-80 102 % of control

O=C(O)c1cc(Br)cc(I)c1I
inactive: dose: 100.0 mg/kg/injection, schedule: Q04DX002 (ip), vehicle: saline with Tween-80 105 % of control | dose: 200.0 mg/kg/injection, schedule: Q04DX002 (ip), vehicle: saline with Tween-80 105 % of control | dose: 400.0 mg/kg/injection, schedule: Q04DX002 (ip), vehicle: saline with Tween-80 110 % of control

CC(=O)OCc1ccc(Cl)cc1
inactive: [13] 96 % of control | [8] 102 % of control

CC1CN1N (centres undefined)
inactive: dose: 25.0 mg/kg/injection, schedule: Q01DX009 (ip), vehicle: saline 101 % of control | dose: 50.0 mg/kg/injection, schedule: Q01DX009 (ip), vehicle: saline 101 % of control | dose: 50.0 mg/kg/injection, schedule: Q04DX003 (ip), vehicle: saline 109 % of control | [4] 105 % of control | [13] 98 % of control | [14] 103 % of control | [5] 105 % of control

CCCOc1ccc(=S)[nH]n1
inactive: [4] 103 % of control | [14] 101 % of control | [5] 95 % of control | dose: 200.0 mg/kg/injection, schedule: Q04DX003 (ip), vehicle: saline 106 % of control | [6] 98 % of control | dose: 400.0 mg/kg/injection, schedule: Q04DX003 (ip), vehicle: saline 95 % of control

CCC(NC(=O)c1ccccc1)C(=O)O (centres undefined)
inactive: [7] 95 % of control | [9] 101 % of control | [10] 103 % of control
